Columns and labels:
C. elegans nematodes = assay: C. elegans lifespan in media with additives; assay type: in vivo; conditions: for number of animals surviving to old ages: after day 15, 0.1 % w/v; for number of animals surviving to old ages / effect on C. elegans survival: result in words; for Animals alive, (N= % of initial =50): parent cyclodextrin 0.1% w/v in media, USA I water; for effect on C. elegans survival: added to culture media; for Animals alive, % of initial (N=50): derivatized cyclodextrin 0.1% w/v in media, USA 1 water
Procedure: C. elegans nematodes were grown in petri-type dishes containing normal nutrient liquid media prepared alternatively with USA 1 water (described in Example 2) lacking any further additive component (control) or the same water supplemented with a parent α-, β-, or γ-cyclodextrin, and/or a bioactive agent, as an active component of cellular hydration. Fifty ⊥ 3 worms were transferred to each dish. Each condition was repeated in triplicate. Experiments were repeated for USA II and BP I waters described in Example 2.
Water additives: A. Addition of parent α-, β- and γ-cvclodcxtrins. B. Addition of L-arginine and nicotinamide. C. Addition of inclusion complexes of cyclodextrins with L-arginine and nicotinamide.

[1] = tested on: Wheat seeds (Triticum aestivum); assay: Wheat seed germination in water with additives; assay type: in vivo
Procedure: For each condition, ten seeds were placed in continuous water contact in a Petri-type dish kept at 25C in 12 hr light/dark cycles. Photometric images were recorded on days 1 to 6 after seeding. The percentage of seeds germinated was calculated and compared as a function of time and of the applied additive concentrations.
Water samples for seed germination were used alone with no additive, or containing cyclodextrins, or containing clathrate inclusion complexes of cyclodextrin with L-arginine or with nicotinamide (both obtained from Sigma Chemical Co.; St. Louis, MO), or with L-carnitine (from Lonza AG; Switzerland). […] Additive solutions were prepared fresh on the day of germination start.
Germination kinetics in control and additive-modified water under identical conditions were quantified as the percentage of the seeds having a sprout. Each determination consisted of 100 seeds for each parameter. Results are reported in Table 1, below, and in FIGS. 11-13.

[2] = NIR spectroscopy of water bonding with cyclodextrin additives; assay type: physicochemical
Procedure: Hydration bond energies in pure waters and solutions of the same waters containing cyclodextrin compounds were assayed using IR spectroscopy in the near and middle infrared ranges. To record linear signals throughout an entire wavelength range, attenuation from water absorbance was minimized with a short optical length cuvette.
NIR range spectra were registered on a FOSS NIR Systems, Inc. 6500 spectrometer and Sample Transport Module (STM) using a 1 mm-es cuvette. […]
Three samples of water were used in the present study. A first water sample (USA I) was obtained from the U.S. and was purified by reverse osmosis, carbon filtration, ultraviolet light exposure, membrane filtration to 0.2 micron absolute, and ozonation. A second water sample (USA II) was also obtained from the U.S. A third water sample (BP I) was obtained from Budapest, Hungary.
The following cyclodextrins were added to the above described water samples at a concentration range of 0.1% - 5% w/v: • α-cyclodextrin (αCD also denoted as ACD), Lot. No. CYL-2322. • β-cyclodextrin (βCD also denoted as BCD). Lot. No. CYL-2518/2. • γ-cyclodextrin (γCD also denoted as GCD), Lot. No. CYL-2323. • 2-hydroxypropyl-β-cyclodextrin (HPβCD, HPBCD), DS^∗ = 3.5, Lot. No. CYL-2232. • 2-hydroxypropyl-γ-cyclodextrin (HPCD, HPGCD), DS^∗ = 4.8, Lot. No. CYL-2258. • carboxymethyl-β-cyclodextrin (CMBCD), Lot. No. CYL-2576. • quaternary-ammonium-β-cyclodextrin (QABCD).

[3] = day 0, additive 0.5% w/v in USA 1 water, Table 2, percentage of the seeds having a sprout
[4] = day 1, additive 0.5% w/v in USA 1 water, Table 2, percentage of the seeds having a sprout
[5] = day 2, additive 0.5% w/v in USA 1 water, Table 2, percentage of the seeds having a sprout
[6] = day 3, additive 0.5% w/v in USA 1 water, Table 2, percentage of the seeds having a sprout
[7] = day 4, additive 0.5% w/v in USA 1 water, Table 2, percentage of the seeds having a sprout
[8] = day 0, additive 0.5% w/v in USA I water, Table 1
[9] = day 1, additive 0.5% w/v in USA I water, Table 1
[10] = day 2, additive 0.5% w/v in USA I water, Table 1
[11] = day 3, additive 0.5% w/v in USA I water, Table 1
[12] = day 4, additive 0.5% w/v in USA I water, Table 1
[13] = wavelength region 900-1200 nm (FIG. 7)

Q: For γ-cyclodextrin, which “number of animals surviving to old ages” value (C. elegans nematodes) is on record?
A: The value was “significantly increased”.

Q: And the “Animals alive, (N= % of initial =50)” value (C. elegans nematodes; life span 10 days)?
A: Its value is 100 % of initial.

Q: And the “Animals alive, (N= % of initial =50)” value (C. elegans nematodes; life span 15 days)?
A: The value was 13 % of initial.

Q: What about the “Animals alive, (N= % of initial =50)” value (C. elegans nematodes; life span 18 days) of the same compound?
A: The value was 2 % of initial.

Q: Which results are given for `NC(=O)c1cccnc1` [nicotinamide, reference compound]?
A: wheat seed germination rate [1, 3]: 0%; wheat seed germination rate [1, 4]: 0%; wheat seed germination rate [1, 5]: 4%; wheat seed germination rate [1, 6]: 10%; wheat seed germination rate [1, 7]: 60%; effect on C. elegans survival (C. elegans nematodes): little effect

Q: Which results are given for `OC[C@H]1O[C@@H]2O[C@H]3[C@H](O)[C@@H](O)[C@@H](O[C@H]4[C@H](O)[C@@H](O)[C@@H](O[C@H]5[C@H](O)[C@@H](O)[C@@H](O[C@H]6[C@H](O)[C@@H](O)[C@@H](O[C@H]7[C@H](O)[C@@H](O)[C@@H](O[C@H]8[C@H](O)[C@@H](O)[C@@H](O[C@H]1[C@H](O)[C@H]2O)O[C@@H]8CO)O[C@@H]7CO)O[C@@H]6CO)O[C@@H]5CO)O[C@@H]4CO)O[C@@H]3CO` [β-Cydodextrin, β-cyclodextrin]?
A: Animals alive, (N= % of initial =50) (C. elegans nematodes; life span 10 days): 100 % of initial; Animals alive, (N= % of initial =50) (C. elegans nematodes; life span 15 days): 18 % of initial; Animals alive, (N= % of initial =50) (C. elegans nematodes; life span 18 days): 0 % of initial

Q: What does the source list for `N=C(N)NCCC[C@H](N)C(=O)O` [L-Arg, L-arginine, reference compound]?
A: wheat seed germination rate [1, 8]: 0 percentage of total seeds; wheat seed germination rate [1, 9]: 0 percentage of total seeds; wheat seed germination rate [1, 10]: 30 percentage of total seeds; wheat seed germination rate [1, 11]: 45 percentage of total seeds; wheat seed germination rate [1, 12]: 60 percentage of total seeds; effect on C. elegans survival (C. elegans nematodes): little effect

Q: With “2-hydroxy-3-N,N,N-trimethylamino)propyl-β-cyclodextrin chloride [Quaternaryammonium-β-Cyclodextrin]” as the compound, how does the “Animals alive, % of initial (N=50)” value (C. elegans nematodes; life span 10 days) read?
A: Its value is 98 % of initial.

Q: What about the “Animals alive, % of initial (N=50)” value (C. elegans nematodes; life span 15 days) of the same compound?
A: The value was 13 % of initial.

Q: And the “Animals alive, % of initial (N=50)” value (C. elegans nematodes; life span 18 days)?
A: The value was 2 % of initial.

Q: And the “water-bond interactions, second-derivative NIR spectra” value (“water-bond interactions” below) ([2]; 1200-1500 nm (FIG. 8))?
A: The value was “significantly modified”.

Q: What about the “water-bond interactions” value ([2]; 1620-1710 nm (FIG. 9)) of the same compound?
A: Its value is “significantly modified”.

Q: And the “water-bond interactions” value ([2]; 2170-2370 nm (FIG. 10))?
A: Its value is “further significantly modified”.

Q: What about the “effect on micro-structure of hydrogen bonds in bulk water (NIR spectral changes)” value ([2]; comparison among cyclodextrin-treated water samples (FIGS. 9 and 10)) of the same compound?
A: The value was “largest”.

Q: What about the “water-bond interactions” value [2, 13] of the same compound?
A: Its value is “significantly modified”.

Q: What does the source list for `CC(O)COC[C@H]1O[C@@H]2O[C@H]3[C@H](O)[C@@H](O)[C@@H](O[C@H]4[C@H](O)[C@@H](O)[C@@H](O[C@H]5[C@H](O)[C@@H](O)[C@@H](O[C@H]6[C@H](O)[C@@H](O)[C@@H](O[C@H]7[C@H](O)[C@@H](O)[C@@H](O[C@H]8[C@H](O)[C@@H](O)[C@@H](O[C@H]1[C@H](O)[C@H]2O)O[C@@H]8COCC(C)O)O[C@@H]7COCC(C)O)O[C@@H]6COCC(C)O)O[C@@H]5COCC(C)O)O[C@@H]4COCC(C)O)O[C@@H]3COCC(C)O` (stereo partly drawn) [HP-β-Cyclodextrin, 2-hydroxypropyl-β-cyclodextrin]?
A: Animals alive, % of initial (N=50) (C. elegans nematodes; life span 10 days): 96 % of initial; Animals alive, % of initial (N=50) (C. elegans nematodes; life span 15 days): 17 % of initial; Animals alive, % of initial (N=50) (C. elegans nematodes; life span 18 days): 0 % of initial; water-bond interactions, second-derivative NIR spectra ([2]; 1200-1500 nm (FIG. 8)): significantly modified; water-bond interactions, second-derivative NIR spectra ([2]; 1620-1710 nm (FIG. 9)): significantly modified; water-bond interactions, second-derivative NIR spectra ([2]; 2170-2370 nm (FIG. 10)): significantly modified; water-bond interactions, second-derivative NIR spectra [2, 13]: further significantly modified

Q: With α-cyclodextrin as the compound, how does the wheat seed germination rate [1, 3] read?
A: Its wheat seed germination rate is 0%.

Q: What about the “wheat seed germination rate” value [1, 8] of the same compound?
A: Its value is 0 percentage of total seeds.

Q: And the wheat seed germination rate [1, 4]?
A: The wheat seed germination rate was 11%.

Q: And the “wheat seed germination rate” value [1, 9]?
A: The value was 0 percentage of total seeds.

Q: What about the wheat seed germination rate [1, 5] of the same compound?
A: The wheat seed germination rate was 18%.

Q: And the “wheat seed germination rate” value [1, 10]?
A: The value was 48 percentage of total seeds.

Q: And the wheat seed germination rate [1, 6]?
A: The wheat seed germination rate was 68%.

Q: What about the “wheat seed germination rate” value [1, 11] of the same compound?
A: Its value is 70 percentage of total seeds.

Q: What about the wheat seed germination rate [1, 7] of the same compound?
A: The wheat seed germination rate was 92%.

Q: And the “wheat seed germination rate” value [1, 12]?
A: The value was 85 percentage of total seeds.

Q: What about the “number of animals surviving to old ages” value (C. elegans nematodes) of the same compound?
A: Its value is “significantly increased”.

Q: And the “Animals alive, (N= % of initial =50)” value (C. elegans nematodes; life span 10 days)?
A: Its value is 100 % of initial.

Q: What about the “Animals alive, (N= % of initial =50)” value (C. elegans nematodes; life span 15 days) of the same compound?
A: The value was 20 % of initial.

Q: What about the “Animals alive, (N= % of initial =50)” value (C. elegans nematodes; life span 18 days) of the same compound?
A: Its value is 2 % of initial.

Q: For “carboxymethyl-β-cyclodextrin [Carboxymethyl-β-Cydodextrin]”, which “Animals alive, % of initial (N=50)” value (C. elegans nematodes; life span 10 days) is on record?
A: The value was 94 % of initial.

Q: What about the “Animals alive, % of initial (N=50)” value (C. elegans nematodes; life span 15 days) of the same compound?
A: Its value is 11 % of initial.

Q: What about the “Animals alive, % of initial (N=50)” value (C. elegans nematodes; life span 18 days) of the same compound?
A: Its value is 0 % of initial.

Q: And the “water-bond interactions” value ([2]; 1200-1500 nm (FIG. 8))?
A: The value was “further significantly modified”.

Q: And the “water-bond interactions” value ([2]; 1620-1710 nm (FIG. 9))?
A: Its value is “significantly modified”.

Q: What about the “water-bond interactions” value ([2]; 2170-2370 nm (FIG. 10)) of the same compound?
A: The value was “significantly modified”.

Q: What about the “water-bond interactions” value [2, 13] of the same compound?
A: Its value is “further significantly modified”.

Source: EP4043037A1, “CELLULAR HYDRATION COMPOSITIONS CONTAINING CYCLODEXTRINS” (Eastpond Laboratories Limited, priority 2010, dated 2012)
